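Dose response: 5 concentrations. Exposure: 48 h. Format: 96-well plates. Endpoint: linear interpolation; highest concentration if not reached. GI50 is the concentration that inhibits growth by half. The concentration for full growth arrest is given as TGI.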
Assays:
Test in all cases: NCI tumour cell line growth inhibition, 48 h
UACC-257 melanoma = system: UACC-257 melanoma
A498 renal = system: A498 renal
CAKI-1 renal = system: CAKI-1 renal
KM12 colon = system: KM12 colon
SK-MEL-5 melanoma = system: SK-MEL-5 melanoma
SNB-19 CNS = system: SNB-19 CNS
OVCAR-5 ovarian = system: OVCAR-5 ovarian
LOX IMVI melanoma = system: LOX IMVI melanoma
SW-620 colon = system: SW-620 colon
HT29 colon = system: HT29 colon
SR leukemia = system: SR leukemia
NCI-H226 lung = system: NCI-H226 lung
HCT-116 colon = system: HCT-116 colon
PC-3 prostate = system: PC-3 prostate
RPMI-8226 leukemia = system: RPMI-8226 leukemia
786-0 renal = system: 786-0 renal
HS 578T breast = system: HS 578T breast
T-47D breast = system: T-47D breast
A549 NSCLC = system: A549 NSCLC
NCI/ADR-RES ovarian = system: NCI/ADR-RES ovarian
MDA-MB-435 = system: MDA-MB-435
SF-268 CNS = system: SF-268 CNS
UO-31 renal = system: UO-31 renal
TK-10 renal = system: TK-10 renal
SK-MEL-2 melanoma = system: SK-MEL-2 melanoma
SNB-75 CNS = system: SNB-75 CNS
BT-549 breast = system: BT-549 breast
HOP-62 NSCLC = system: HOP-62 NSCLC
COLO 205 colon = system: COLO 205 colon
MDA-MB-231 breast = system: MDA-MB-231 breast
MALME-3M melanoma = system: MALME-3M melanoma
NCI-H460 lung = system: NCI-H460 lung
CCRF-CEM leukemia = system: CCRF-CEM leukemia
M14 melanoma = system: M14 melanoma
SF-295 CNS = system: SF-295 CNS
SN12C renal = system: SN12C renal
UACC-62 melanoma = system: UACC-62 melanoma
EKVX NSCLC = system: EKVX NSCLC
NCI-H23 lung = system: NCI-H23 lung
SK-MEL-28 melanoma = system: SK-MEL-28 melanoma
OVCAR-8 ovarian = system: OVCAR-8 ovarian
OVCAR-3 ovarian = system: OVCAR-3 ovarian
MCF7 breast = system: MCF7 breast
SK-OV-3 ovarian = system: SK-OV-3 ovarian
K-562 leukemia = system: K-562 leukemia
NCI-H522 lung = system: NCI-H522 lung
MOLT-4 leukemia = system: MOLT-4 leukemia

COc1cccc2c1-c1c(c3ccc([N+](=O)[O-])cc3c(=O)n1CCCCl)C2=O
GI50 (UACC-257 melanoma): > 50 µM | TGI (UACC-257 melanoma): > 50 µM | GI50 (A498 renal): 17.4 µM | TGI (A498 renal): > 50 µM | GI50 (CAKI-1 renal): 1.13 µM | TGI (CAKI-1 renal): 24.1 µM | GI50 (KM12 colon): > 50 µM | TGI (KM12 colon): > 50 µM | GI50 (SK-MEL-5 melanoma): 0.791 µM | TGI (SK-MEL-5 melanoma): > 50 µM | GI50 (SNB-19 CNS): 12.4 µM | TGI (SNB-19 CNS): > 50 µM | GI50 (OVCAR-5 ovarian): > 50 µM | TGI (OVCAR-5 ovarian): > 50 µM | GI50 (LOX IMVI melanoma): 1.23 µM | TGI (LOX IMVI melanoma): > 50 µM | GI50 (SW-620 colon): 0.286 µM | TGI (SW-620 colon): > 50 µM | GI50 (HT29 colon): > 50 µM | TGI (HT29 colon): > 50 µM | GI50 (SR leukemia): 0.202 µM | TGI (SR leukemia): > 50 µM | GI50 (NCI-H226 lung): 5.82 µM | TGI (NCI-H226 lung): 41.5 µM | GI50 (HCT-116 colon): 2.48 µM | TGI (HCT-116 colon): > 50 µM | GI50 (PC-3 prostate): 7.37 µM | TGI (PC-3 prostate): > 50 µM | GI50 (RPMI-8226 leukemia): 3.69 µM | TGI (RPMI-8226 leukemia): > 50 µM | GI50 (786-0 renal): 6.4 µM | TGI (786-0 renal): 17.4 µM | GI50 (HS 578T breast): 25.2 µM | TGI (HS 578T breast): > 50 µM | GI50 (T-47D breast): > 50 µM | TGI (T-47D breast): > 50 µM | GI50 (A549 NSCLC): > 50 µM | TGI (A549 NSCLC): > 50 µM | GI50 (NCI/ADR-RES ovarian): > 50 µM | TGI (NCI/ADR-RES ovarian): > 50 µM | GI50 (MDA-MB-435): > 50 µM | TGI (MDA-MB-435): > 50 µM | GI50 (SF-268 CNS): 0.00993 µM | TGI (SF-268 CNS): 3.96 µM | GI50 (UO-31 renal): 1.73 µM | TGI (UO-31 renal): > 50 µM | GI50 (TK-10 renal): 11.8 µM | TGI (TK-10 renal): 38.9 µM | GI50 (SK-MEL-2 melanoma): 48.8 µM | TGI (SK-MEL-2 melanoma): > 50 µM | GI50 (SNB-75 CNS): 11.6 µM | TGI (SNB-75 CNS): 32.3 µM | GI50 (BT-549 breast): 17.1 µM | TGI (BT-549 breast): > 50 µM | GI50 (HOP-62 NSCLC): 5.46 µM | TGI (HOP-62 NSCLC): 15.9 µM | GI50 (COLO 205 colon): > 50 µM | TGI (COLO 205 colon): > 50 µM | GI50 (MDA-MB-231 breast): 29.5 µM | TGI (MDA-MB-231 breast): > 50 µM | GI50 (MALME-3M melanoma): 7.06 µM | TGI (MALME-3M melanoma): > 50 µM | GI50 (NCI-H460 lung): 0.972 µM | TGI (NCI-H460 lung): > 50 µM | GI50 (CCRF-CEM leukemia): 1.5 µM | TGI (CCRF-CEM leukemia): > 50 µM | GI50 (M14 melanoma): 8.57 µM | TGI (M14 melanoma): > 50 µM | GI50 (SF-295 CNS): 1.82 µM | TGI (SF-295 CNS): > 50 µM | GI50 (SN12C renal): 15.8 µM | TGI (SN12C renal): > 50 µM | GI50 (UACC-62 melanoma): 2.42 µM | TGI (UACC-62 melanoma): 18.8 µM | GI50 (EKVX NSCLC): > 50 µM | TGI (EKVX NSCLC): > 50 µM | GI50 (NCI-H23 lung): 24.4 µM | TGI (NCI-H23 lung): > 50 µM | GI50 (SK-MEL-28 melanoma): > 50 µM | TGI (SK-MEL-28 melanoma): > 50 µM | GI50 (OVCAR-8 ovarian): > 50 µM | TGI (OVCAR-8 ovarian): > 50 µM | GI50 (OVCAR-3 ovarian): > 50 µM | TGI (OVCAR-3 ovarian): > 50 µM | GI50 (MCF7 breast): 0.0614 µM | TGI (MCF7 breast): 0.327 µM | GI50 (SK-OV-3 ovarian): 21.1 µM | TGI (SK-OV-3 ovarian): > 50 µM | GI50 (K-562 leukemia): > 50 µM | TGI (K-562 leukemia): > 50 µM | GI50 (NCI-H522 lung): 0.685 µM | TGI (NCI-H522 lung): > 50 µM | GI50 (MOLT-4 leukemia): 2.23 µM | TGI (MOLT-4 leukemia): > 50 µM

Source: PubChem BioAssay (NCI)
